The assay relates to T. b. rhodesiense STIB900 proliferation, Alamar blue, 72 h. Nature of the assay: T. b. rhodesiense proliferation inhibition, dose response, STIB900 strain, plate reader, cherry pick (AID 651893).

Structures are written as SMILES.

As to `C[C@@H]1CN([C@@H](C)CO)C(=O)c2cccc(NC(=O)c3ccncc3)c2O[C@H]1CN(C)Cc1ccc(Oc2ccccc2)cc1`, the IC50 (usually the concentration needed to halve the response being measured) was 715 nM.

The values above are taken from PubChem BioAssay AID651893 (Broad Institute, 2012).
